Results on one substance are retold here after paper PMC11758266, “Lipid-Modulated, Graduated Inhibition of N-Glycosylation Pathway Priming Suggests Wide Tolerance of ER Proteostasis to Stress” (ACS Central Science, 2024).

The term pEC50 denotes the negative decadic logarithm of the EC50, by convention in mol/L.

One series deals with HEK293 cells. In words: HEK-CellCount readout (stained nuclei of live cells, internal cytotoxicity measure). Type of series: cell-based, human. As for the experimental part: Here, the nuclear localization of the transcription factor ATF4 (which leads to subsequent expression of CHOP and cell death) was used as a phenotypic marker of ER stress (Figure 3A). Use of multi(384)-well plate format allowed wild-type HEK cells to be treated with analogues over a titrating concentration range of 0.5 nM to […] for 6 h in a quantitative manner (Figure 3C). After fixation with paraformaldehyde, high-content cellular fluorescence microscopy imaging was used to both determine the site and quantify the location of ATF4[32] (Figure 3B,C). […] In this way, confocal fluorescence microscopy at excitation wavelengths of 405 and 488 nm produced, as a direct primary readout, the intensity of ATF4 located in the nucleus as well as the ratio of ATF4 located between the nucleus (colocalized with Hoechst) and cytoplasm (see Figure 3B,C for representative images and the Supporting Information for channel-by-channel images). Concurrent readout of the number of stained nuclei (Hoechst nuclei stain) in live cells was also used as an internal cytotoxicity measure. This high-content method allowed detailed quantitative cellular dose responses to be determined with precision (Figure 3D). […]
Figure 3 High-content phenotypic screen for putative ER stress inducers. […] Plates were imaged using an OPERA-Phenix high-content imaging platform with fluorescence excitation at 405 and 488 nm. […]

A further series has as its target T1, DPAGT1 (Homo sapiens, UniProt Q9H3H5).
T1 sequence (Q9H3H5 1-408): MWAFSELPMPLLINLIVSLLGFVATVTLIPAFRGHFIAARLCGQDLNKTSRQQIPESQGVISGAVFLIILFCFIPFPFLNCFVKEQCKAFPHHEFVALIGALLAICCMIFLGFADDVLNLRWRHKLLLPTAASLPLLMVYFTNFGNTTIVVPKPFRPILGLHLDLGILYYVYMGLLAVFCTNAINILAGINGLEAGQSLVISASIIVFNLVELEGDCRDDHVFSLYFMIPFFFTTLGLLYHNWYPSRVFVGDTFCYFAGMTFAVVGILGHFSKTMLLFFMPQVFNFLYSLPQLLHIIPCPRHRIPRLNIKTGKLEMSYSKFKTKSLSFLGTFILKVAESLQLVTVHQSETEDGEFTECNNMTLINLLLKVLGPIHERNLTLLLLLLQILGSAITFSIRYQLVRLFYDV
In words: Heat-induced denaturation assay of DPAGT1 with bound ligand. The series is classed as binding. From the text: The structure of DPAGT1 in complex with the archetypal scaffold natural product tunicamycin[21] […] Trp122 moves so as to use its indole moiety to hydrophobically provide a binding “cap” or “lid” over the proximal portion of the 10′-N lipid chain.

pEC50: −log10 of the molar value.

As to tunicamycin [reference compound], the “cell death (in words)” value in the series on HEK293 cells is listed as “causing cell death”. For the same substance, in the series with HEK293 cells (6 h, live cell nuclei count, read-out: EC50, cell death), the pEC50 is around 5.00. For the same substance, the “Tm,1/2 of DPAGT1 bound to ligand” value on DPAGT1 (heat-induced denaturation, DPAGT1 alone 51.7 ± 0.2 °C) worked out at 83.0 ± 0.4 °C. Further, the “ΔTm,1/2 of DPAGT1” value at DPAGT1 (versus DPAGT1 alone) is 31.3 °C.
